The values below are quoted from earlier work in PMC11071064 (Nuclear medicine and biology, 2022).

For data set [1] the following is noted: pH 7.4.
Data set [2] has as its system RIPK1. Conditions: read-out: IC50 for binding toward RIPK1.
Data set [3] deals with RIPK1. Conditions: read-out: EC50 (potency).
Assay in data set [4]: not given
The source holds these as a separate data set.

A value given as a limit tells only on which side of the number the result lay.

A word on the log D: it is lipophilicity at a set pH, counting ionised and neutral species. As usually defined, the IC50 is the point on the concentration scale where inhibition reaches its midpoint. For the molecule `CN1C(=O)[C@@H](NC(=O)c2n[nH]c(Cc3ccccc3)n2)COc2ccccc21` [Compound 4], the “log D” value is 3.8. Further, in data set [1], the solubility is reported as ~ 450 μM. Besides, in data set [2], the concentration for half-maximal inhibition (IC50) is 1 nM.

The term EC50 denotes the concentration giving half of the maximal effect. `CN1C(=O)NC(Cc2c[nH]c3c(Cl)cccc23)C1=O` (stereo not shown) [Nec-1s]: in data set [3], the EC50 is 210 nM. Moreover, the “metabolic stability t1/2” value in data set [4] is on record as less than 5 min.

For `CN1C(=O)C(Cc2c[nH]c3ccccc23)NC1=S` (stereo not shown) [Nec-1], the EC50 in data set [3] is 490 nM. Also, in data set [4], the “metabolic stability t1/2” value is less than 5 min.
